Results from patent US20190160089A1, “COMBINATION TREATMENT WITH ANTIBODY-DRUG CONJUGATES AND CYTARABINE” (IMMUNOGEN, INC., priority 2017, published 2019).

Legend:
[1] = system: EOL-1 cells, a human AML cell line; assay: In vivo efficacy in EOL-1 subcutaneous xenograft model; details: EOL-1 sc xenograft; IMGN779 5 μg/kg day 10; cytarabine 75 mg/kg days 10-14; text: long-term CRs on day 90
Method: The mice were weighed twice a week and were monitored for clinical signs throughout the duration of the study. Animals were euthanized when hind leg paralysis was present, body weight decreased by >20% of pre-treatment weight, tumor ulceration occurred, or when any signs of distress were visible. Tumor volumes were measured one to two times weekly in three dimensions using a caliper. […] Tumor Growth Inhibition (T/C Value) was also assessed using the following formula: T/C (%)=(Median tumor volume of the treated/Median tumor volume of the control)×100%. Tumor volume was determined simultaneously for the treated (T) and the vehicle control (C) groups when tumor volume of the vehicle control reached a predetermined size (Bissery et al., Cancer Res. 51: 4845-52 (1991). The daily median tumor volume of each treated group was determined, including tumor-free mice (0 mm^3). According to NCI standards, a T/C≤42% is the minimum level of anti-tumor activity. A T/C<10% is considered a high anti-tumor activity level.
Female athymic nude mice were each inoculated with 1×10^7 EOL-1 cells, a human AML cell line, in 100 μl serum free medium subcutaneously in the right flank. […]

[2] = system: MV4-11; assay: In vitro CD33 expression post-treatment with cytarabine (flow cytometry, PE anti-CD33); type: cell-based, human; details: cytarabine 2,500 nM, 15, 24, 39, 48 hours post-treatment
Method: (§1) CD33 expression was assessed post-treatment with cytarabine. In these experiments, two AML cell lines with cell surface display of CD33 and cytarabine sensitivity were used: MV4-11 and MOLM-13. The potency-relative doses were chosen for each treatment, relative to IC50s generated from 96-hour cytotoxicity assays. […] Time points at 15 hours, 24 hours, 39 hours, and 48 hours post-treatment with cytarabine were chosen for cell surface CD33 assessment. Cells were stained with, then washed of excess, PE-conjugated anti-CD33 mAb. Flow cytometric analyses of PE MFI were run on a FACSCanto II flow cytometer. PE-MFIs at each timepoint were normalized to PE-MFIs of untreated control samples and normalized PE-MFIs were considered to represent relative fold-changes in surface CD33 binding sites.

[3] = system: MOLM-13; assay: as above; type: cell-based, human; details: cytarabine 400 nM, 15, 24, 39, 48 hours post-treatment
Method: as §1

[4] = system: MV4-11 cells, a human AML cell line; assay: In vivo efficacy in MV4-11 disseminated xenograft model; set-up: species or system mice; details: cytarabine alone 75 mg/kg QD×5 days 24-28
Method: (§2) The measured end-point was survival. […] Spontaneous deaths were recorded when they were discovered. For disseminated models, Tumor Growth Delay is calculated as T−C, where T is the median survival time (in days) of a treated group and C is the median survival time (in days) of the vehicle control group. The Percent Increased Life Span (% ILS) for disseminated models is calculated using the following formula: % ILS=(T−C)/C×100%.
The cyclophosphamide (Sigma, C0768, Lot # MKBX1822V) was dissolved in 0.9% NaCl and was administered intraperitoneally to the mice on day −3 and day −2 prior to MV4-11 cell inoculation.
Following cyclophosphamide treatment as described above, the mice were each injected intravenously in the lateral tail vein with 3×10^6 MV4-11 cells, a human AML cell line, in 100 μl of serum-free medium on day 0 in the study.
Cytarabine was given once a day (QD) at a dose of 75 mg/kg for five consecutive days (×5) and always administered on the same fixed set of days in the study time line: days 24, 25, 26, 27 and 28.
Lastly, Group K received QW×3 dosing of 1 μg/kg by DGN462 (0.0556 mg/kg by antibody) of a non-targeted control conjugate, Ab-DGN462, on a day 21, 28 and 35 dosing schedule (“Day 21”, with FcR blocking).

[5] = system: Molm-13 cells, a human AML cell line; assay: In vivo efficacy in Molm-13 disseminated xenograft model; set-up: species or system mice; details: cytarabine alone 75 mg/kg QD×5 days 7-11
Method: as §2
The cyclophosphamide (Sigma, C0768, Lot # MKBX1822V) was dissolved in 0.9% NaCl and was administered intraperitoneally to the mice on day −2 prior to Molm-13 cell inoculation on day 0.
Following cyclophosphamide treatment as described above, the mice were each injected intravenously in the lateral tail vein with 2×10^5 Molm-13 cells, a human AML cell line, in 100 μl of serum-free medium on day 0 in the study.
Cytarabine, in contrast, was given once a day (QD) at a dose of 75 mg/kg for five consecutive days (×5) and always on a fixed set of days in the study time line: Days 7, 8, 9, 10 and 11.
The results are represented in Table 5 (below) and in FIG. 3.

[6] = molecular target: CD33 (Homo sapiens, UniProt P20138); details: CD33 on the surface of CD33-positive cells; cited from earlier work
Sequence of CD33 (P20138 18-364): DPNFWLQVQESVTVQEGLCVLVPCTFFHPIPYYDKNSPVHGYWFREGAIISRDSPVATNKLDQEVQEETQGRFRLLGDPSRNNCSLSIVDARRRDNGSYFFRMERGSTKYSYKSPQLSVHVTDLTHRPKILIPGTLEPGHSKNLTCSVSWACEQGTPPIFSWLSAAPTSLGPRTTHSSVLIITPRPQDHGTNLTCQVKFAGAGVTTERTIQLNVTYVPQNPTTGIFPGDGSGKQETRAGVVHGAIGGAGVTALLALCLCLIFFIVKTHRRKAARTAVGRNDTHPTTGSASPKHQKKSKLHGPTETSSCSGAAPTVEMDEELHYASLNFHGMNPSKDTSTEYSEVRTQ

Compound | Tumor Free Survivors (Day 90) [1] | CD33 transcription and cell surface expression [2] | CD33 transcription and cell surface expression [3] | Median Survival Time ([4]; NOD SCID mice) | % Increased Life Span (ILS) [4] | Result [4] | Tumor Growth Delay (T-C, Days) [4] | Median Survival Time ([5]; NOD SCID mice) | % Increased Life Span (ILS) [5] | Result [5] | Tumor Growth Delay (T-C, Days) [5] | binding affinity to CD33 [6]
Nc1ccn([C@@H]2O[C@H](CO)[C@@H](O)[C@@H]2O)c(=O)n1 [Cytarabine, cytosine arabinoside] | 0/6 | dose- and time-dependent increase | dose- and time-dependent increase | 46 days | 0% | Inactive | 0 days | 20 days | 0% | Inactive | 0 days | 
My9-6: murine anti-CD33 antibody from which huMy9-6 is derived |  |  |  |  |  |  |  |  |  |  |  | high affinity
